In brackets after ≈: the same amount, converted by molar mass. One block for each compound: values may come before it.
Tests used:
Oryctolagus cuniculus [1] = organism: Oryctolagus cuniculus; experiment: The compound was evaluated for fall in intraocular pressure (IOP) of Normotensive rabbits after treatment with one drop (50 microL) of a 2% solution at 30 min (pH 7.5); assay type: functional, Eye
Oryctolagus cuniculus [2] = organism: Oryctolagus cuniculus; experiment: The compound was evaluated for fall in intraocular pressure (IOP) of glaucomatous rabbits after treatment with one drop (50 microL) of a 2% solution at 90 min (pH 7.5); assay type: functional, Eye
Oryctolagus cuniculus [3] = organism: Oryctolagus cuniculus; experiment: The compound was evaluated for fall in intraocular pressure (IOP) of Normotensive rabbits after treatment with one drop (50 microL) of a 2% solution at 0 min (pH 7.5); assay type: functional, Eye
[4] = octanol/water
Description: Partition coefficient (logD) (chloroform/buffer)

Oryctolagus cuniculus [5] = organism: Oryctolagus cuniculus; experiment: The compound was evaluated for fall in intraocular pressure (IOP) of glaucomatous rabbits after treatment with one drop (50 microL) of a 2% solution at 30 min (pH 7.5); assay type: functional, Eye
physchem = conditions: buffer, pH 7.4
Oryctolagus cuniculus [6] = organism: Oryctolagus cuniculus; experiment: The compound was evaluated for fall in intraocular pressure (IOP) of Normotensive rabbits after treatment with one drop (50 microL) of a 2% solution at 60 min (pH 7.5); assay type: functional, Eye
Carbonic anhydrase 4 = biological target: T1, Carbonic anhydrase 4 (Bos taurus, UniProt Q95323)
T1 sequence (Q95323 whole entry): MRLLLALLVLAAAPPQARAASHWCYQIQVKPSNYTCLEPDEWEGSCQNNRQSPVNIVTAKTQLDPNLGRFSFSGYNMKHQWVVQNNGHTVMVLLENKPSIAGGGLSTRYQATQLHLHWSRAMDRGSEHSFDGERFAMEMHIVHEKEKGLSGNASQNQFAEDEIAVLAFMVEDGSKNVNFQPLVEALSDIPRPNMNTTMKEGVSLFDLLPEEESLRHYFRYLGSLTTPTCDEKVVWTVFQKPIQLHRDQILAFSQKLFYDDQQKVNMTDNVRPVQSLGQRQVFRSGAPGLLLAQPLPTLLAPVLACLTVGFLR
Description: Inhibitory activity against bovine carbonic anhydrase IV (CA4), isolated from bovine lung microsomes

Carbonic anhydrase 1 = Carbonic anhydrase 1 (Homo sapiens, UniProt P00915)
Description: Inhibitory activity against human recombinant carbonic anhydrase I (CA1)

[7] = not given; remark: listed apart in the source
Oryctolagus cuniculus [8] = organism: Oryctolagus cuniculus; experiment: The compound was evaluated for fall in intraocular pressure (IOP) of glaucomatous rabbits after treatment with one drop (50 microL) of a 2% solution at 60 min (pH 7.5); assay type: functional, Eye
Oryctolagus cuniculus [9] = organism: Oryctolagus cuniculus; experiment: The compound was evaluated for fall in intraocular pressure (IOP) of Normotensive rabbits after treatment with one drop (50 microL) of a 2% solution at 60 min (pH 7.0); assay type: functional, Eye
Oryctolagus cuniculus [10] = organism: Oryctolagus cuniculus; experiment: The compound was evaluated for fall in intraocular pressure (IOP) of Normotensive rabbits after treatment with one drop (50 microL) of a 2% solution at 90 min (pH 7.0); assay type: functional, Eye
Oryctolagus cuniculus [11] = organism: Oryctolagus cuniculus; experiment: The compound was evaluated for fall in intraocular pressure (IOP) of Normotensive rabbits after treatment with one drop (50 microL) of a 2% solution at 30 min (pH 7.0); assay type: functional, Eye
Oryctolagus cuniculus [12] = organism: Oryctolagus cuniculus; experiment: The compound was evaluated for fall in intraocular pressure (IOP) of Normotensive rabbits after treatment with one drop (50 microL) of a 2% solution at 0 min (pH 7.0); assay type: functional, Eye
Oryctolagus cuniculus [13] = organism: Oryctolagus cuniculus; experiment: The compound was evaluated for fall in intraocular pressure (IOP) of Normotensive rabbits after treatment with one drop (50 microL) of a 2% solution at 0 min (pH 5.5); assay type: functional, Eye
Oryctolagus cuniculus [14] = organism: Oryctolagus cuniculus; experiment: The compound was evaluated for fall in intraocular pressure (IOP) of Normotensive rabbits after treatment with one drop (50 microL) of a 2% solution at 60 min (pH 5.5); assay type: functional, Eye
Oryctolagus cuniculus [15] = organism: Oryctolagus cuniculus; experiment: The compound was evaluated for fall in intraocular pressure (IOP) of Glaucomatous rabbits after treatment with one drop (50 microL) of a 2% solution at 30 min (pH 6.0); assay type: functional, Eye
Oryctolagus cuniculus [16] = organism: Oryctolagus cuniculus; experiment: The compound was evaluated for fall in intraocular pressure (IOP) of Normotensive rabbits after treatment with one drop (50 microL) of a 2% solution at 90 min (pH 5.5); assay type: functional, Eye
Oryctolagus cuniculus [17] = organism: Oryctolagus cuniculus; experiment: The compound was evaluated for fall in intraocular pressure (IOP) of Glaucomatous rabbits after treatment with one drop (50 microL) of a 2% solution at 60 min (pH 6.0); assay type: functional, Eye
Oryctolagus cuniculus [18] = organism: Oryctolagus cuniculus; experiment: The compound was evaluated for fall in intraocular pressure (IOP) of Normotensive rabbits after treatment with one drop (50 microL) of a 2% solution at 30 min (pH 5.5); assay type: functional, Eye
Oryctolagus cuniculus [19] = organism: Oryctolagus cuniculus; experiment: The compound was evaluated for fall in intraocular pressure (IOP) of Glaucomatous rabbits after treatment with one drop (50 microL) of a 2% solution at 0 min (pH 6.0); assay type: functional, Eye
Oryctolagus cuniculus [20] = organism: Oryctolagus cuniculus; experiment: The compound was evaluated for fall in intraocular pressure (IOP) of Glaucomatous rabbits after treatment with one drop (50 microL) of a 2% solution at 90 min (pH 6.0); assay type: functional, Eye

Carbonic anhydrase 1, sequence (P00915 whole entry): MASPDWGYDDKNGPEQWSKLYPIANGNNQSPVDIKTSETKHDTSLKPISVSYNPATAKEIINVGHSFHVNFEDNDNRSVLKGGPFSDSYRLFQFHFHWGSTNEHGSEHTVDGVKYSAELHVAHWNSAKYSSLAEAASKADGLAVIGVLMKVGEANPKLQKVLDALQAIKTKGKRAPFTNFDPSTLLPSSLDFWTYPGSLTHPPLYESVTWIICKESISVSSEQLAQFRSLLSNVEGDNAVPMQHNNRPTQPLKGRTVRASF

kin: 4.7 h⁻¹ | logD [4]: 1.944 | solubility (physchem): 75 mM (≈ 27.3 mg/mL) | Ki (Carbonic anhydrase 4): 8 nM | Ki (Carbonic anhydrase 1): 21 nM | kin [7]: 8.5 h⁻¹
SMILES: CN(CC(=O)NCCC(=O)Nc1nnc(S(N)(=O)=O)s1)C(=N)N
Change in IOP (Oryctolagus cuniculus [1]): 10.7 mmHg | Change in IOP (Oryctolagus cuniculus [2]): 14.3 mmHg | Change in IOP (Oryctolagus cuniculus [3]): 6.6 mmHg | Change in IOP (Oryctolagus cuniculus [5]): 8.6 mmHg | Change in IOP (Oryctolagus cuniculus [6]): 9.8 mmHg | Change in IOP (Oryctolagus cuniculus [8]): 14.2 mmHg

Ki (Carbonic anhydrase 4): 41 nM | Ki (Carbonic anhydrase 1): 190 nM
SMILES: CN(CC(=O)/N=c1/sc(S(N)(=O)=O)nn1C)C(=N)N
Change in IOP (Oryctolagus cuniculus [9]): 9.2 mmHg | Change in IOP (Oryctolagus cuniculus [10]): 9 mmHg | Change in IOP (Oryctolagus cuniculus [11]): 5.5 mmHg | Change in IOP (Oryctolagus cuniculus [12]): 0 mmHg

kin: 3.1 h⁻¹ | logD [4]: 0.043 | solubility (physchem): 65 mM (≈ 25.5 mg/mL) | Ki (Carbonic anhydrase 4): 9 nM | Ki (Carbonic anhydrase 1): 14 nM | kin [7]: 5.4 h⁻¹
SMILES: NCC(=O)Nc1ccc(S(=O)(=O)Nc2nnc(S(N)(=O)=O)s2)cc1
Change in IOP (Oryctolagus cuniculus [13]): 0 mmHg | Change in IOP (Oryctolagus cuniculus [14]): 9.5 mmHg | Change in IOP (Oryctolagus cuniculus [15]): 7.9 mmHg | Change in IOP (Oryctolagus cuniculus [16]): 9 mmHg | Change in IOP (Oryctolagus cuniculus [17]): 12.5 mmHg | Change in IOP (Oryctolagus cuniculus [18]): 5.9 mmHg | Change in IOP (Oryctolagus cuniculus [19]): 0 mmHg | Change in IOP (Oryctolagus cuniculus [20]): 14 mmHg
